Key:
Format in all cases: cell-based
[1] = tested on: HBeAg; assay: PHH HBV natural infection assay, HBeAg (alphalisa); conditions: Hepatitis B virus, Hepatocyte, read-out: HBeAg IC50
Procedure, shortened: (§1)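 Primary human hepatocytes infected with HBV at 200 GE/cell plus 4% PEG8000 for 24 h, then sandwich-cultured 72 h in medium with 1% DMSO. Compound applied twice at 72-h intervals; supernatant HBsAg and HBeAg quantified by AlphaLISA.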

[2] = tested on: HBsAg; assay: PHH HBV natural infection assay, HBsAg (alphalisa); conditions: Hepatitis B virus, Hepatocyte, read-out: HBsAg IC50
Procedure, shortened: as §1

[3] = Cytotoxicity in PHH natural infection assay (Cell Counting Kit-8); conditions: HBV-infected primary human hepatocytes, CCK8
Procedure, shortened: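 HBV-infected primary human hepatocytes (200 GE/cell, 4% PEG8000, 24 h), then sandwich-cultured 72 h. Cells dosed at varying concentrations for two 72-hour cycles, with medium refreshed. Cytotoxicity read by CCK-8 at end of treatment.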

Structure (SMILES) | IC50 [1] | IC50 [2] | CC50 at 144 h [3]
O=C(NC1CCC2(CC1)CCN(c1nc3cc(Cl)ccc3o1)CC2)[C@H]1CCS(=O)(=O)C1 [Example 92, (3R)—N-[3-(5-chloro-1,3-benzoxazol-2-yl)-3-azaspiro[5.5]undecan-9-yl]-1,1-dioxo-thiolane-3-carboxamide] | 0.75 µM | 0.857 µM | 83.9 µM
CC1(C(=O)NC2CCC3(CC2)CCN(c2nc4cc(Cl)ccc4o2)CC3)CCS(=O)(=O)C1 (stereo not drawn) [Example 93, N-[3-(5-chloro-1,3-benzoxazol-2-yl)-3-azaspiro[5.5]undecan-9-yl]-3-methyl-1,1-dioxo-thiolane-3-carboxamide] | 1.19 µM | 1.82 µM | > 100 µM
O=C(NC1CCC2(CC1)CCN(c1nc3ccc(Cl)cc3o1)CC2)C1CCS(=O)(=O)C1 (stereo not drawn) [Example 94, N-[3-(6-chloro-1,3-benzoxazol-2-yl)-3-azaspiro[5.5]undecan-9-yl]-1,1-dioxo-thiolane-3-carboxamide] | 1.4 µM | 1.73 µM | 90.6 µM
O=C(NC1CCC2(CC1)CCN(c1nc3cc(Cl)ccc3o1)CC2)C1CC2(C1)CS(=O)(=O)C2 [Example 95, N-[3-(5-chloro-1,3-benzoxazol-2-yl)-3-azaspiro[5.5]undecan-9-yl]-2,2-dioxo-2-λ^6-thiaspiro[3.3]heptane-6-carboxamide] | 3.62 µM | 1.67 µM | > 100 µM
O=C(NC1CCC2(CC1)CCN(c1nc3cc(Cl)ccc3o1)CC2)C1CCS(=O)(=O)CC1 [Example 96, N-[3-(5-chloro-1,3-benzoxazol-2-yl)-3-azaspiro[5.5]undecan-9-yl]-1,1-dioxo-thiane-4-carboxamide] | 0.727 µM | 0.957 µM | 93.6 µM
O=C(NC1CCC2(CC1)CCN(c1nc3ccc(Cl)cc3o1)CC2)C1CCS(=O)(=O)CC1 [Example 97, N-[3-(6-chloro-1,3-benzoxazol-2-yl)-3-azaspiro[5.5]undecan-9-yl]-1,1-dioxo-thiane-4-carboxamide] | 2.48 µM | 3.52 µM | > 100 µM
CC1(C(=O)NC2CCC3(CC2)CCN(c2nc4cc(Cl)ccc4o2)CC3)CC[S+]([O-])CC1 (stereo not drawn) [Example 98, N-[3-(5-chloro-1,3-benzoxazol-2-yl)-3-azaspiro[5.5]undecan-9-yl]-4-methyl-1-oxo-thiane-4-carboxamide] | 2.23 µM | 4.23 µM | > 100 µM
CC1(C(=O)NC2CCC3(CC2)CCN(c2nc4cc(Cl)ccc4o2)CC3)CCS(=O)(=O)CC1 [Example 99, N-[3-(5-chloro-1,3-benzoxazol-2-yl)-3-azaspiro[5.5]undecan-9-yl]-4-methyl-1,1-dioxo-thiane-4-carboxamide] | 2.02 µM | 2.63 µM | 94.1 µM
O=C(NC1CCC2(CC1)CCN(c1nc3cc(Cl)ccc3o1)CC2)C1CCCS(=O)(=O)C1 (stereo not drawn) [Example 100, N-[3-(5-chloro-1,3-benzoxazol-2-yl)-3-azaspiro[5.5]undecan-9-yl]-1,1-dioxo-thiane-3-carboxamide] | 1.72 µM | 2.44 µM | > 100 µM
O=C(NC1CCC2(CC1)CCN(c1nc3cc(Cl)ccc3o1)CC2)C1CCC(F)(F)C1 (stereo not drawn) [Example 101, N-[3-(5-chloro-1,3-benzoxazol-2-yl)-3-azaspiro[5.5]undecan-9-yl]-3,3-difluoro-cyclopentanecarboxamide] | 4.29 µM | 4.16 µM | > 100 µM
O=C(NC1CCC2(CC1)CCN(c1nc3cc(Cl)ccc3o1)CC2)C1CCC(F)(F)CC1 [Example 102, N-[3-(5-chloro-1,3-benzoxazol-2-yl)-3-azaspiro[5.5]undecan-9-yl]-4,4-difluoro-cyclohexanecarboxamide] | 3.77 µM | 3.6 µM | > 100 µM
CC[S+]([O-])c1ccc(C(=O)NC2CCC3(CC2)CCN(c2nc4cc(Cl)ccc4o2)CC3)o1 (stereo not drawn) [Example 103, N-[3-(5-chloro-1,3-benzoxazol-2-yl)-3-azaspiro[5.5]undecan-9-yl]-5-ethylsulfinyl-furan-2-carboxamide] | 1.85 µM | 1.35 µM | 72.7 µM
O=C(NC1CCC2(CC1)CCN(c1nc3cc(Cl)ccc3o1)CC2)c1ccc([S+]([O-])CC2CC2)o1 (stereo not drawn) [Example 104, N-[3-(5-chloro-1,3-benzoxazol-2-yl)-3-azaspiro[5.5]undecan-9-yl]-5-(cyclopropylmethylsulfinyl)furan-2-carboxamide] | 0.996 µM | 1.16 µM | 94.8 µM
O=C(NC1CCC2(CC1)CCN(c1nc3cc(Cl)ccc3o1)CC2)c1ccnc(C(F)(F)F)c1 [Example 105, N-[3-(5-chloro-1,3-benzoxazol-2-yl)-3-azaspiro[5.5]undecan-9-yl]-2-(trifluoromethyl)pyridine-4-carboxamide] | 1.03 µM | 1.12 µM | 59 µM
COc1cc(C(=O)NC2CCC3(CC2)CCN(c2nc4cc(Cl)ccc4o2)CC3)ccn1 [Example 106, N-[3-(5-chloro-1,3-benzoxazol-2-yl)-3-azaspiro[5.5]undecan-9-yl]-2-methoxy-pyridine-4-carboxamide] | 0.48 µM | 0.59 µM | > 100 µM
Cc1cc(C(=O)NC2CCC3(CC2)CCN(c2nc4cc(Cl)ccc4o2)CC3)ccn1 [Example 107, N-[3-(5-chloro-1,3-benzoxazol-2-yl)-3-azaspiro[5.5]undecan-9-yl]-2-methyl-pyridine-4-carboxamide] | 0.427 µM | 0.496 µM | > 100 µM
NS(=O)(=O)c1ccc(C(=O)NC2CCC3(CC2)CCN(c2nc4cc(Cl)ccc4o2)CC3)o1 [Example 108, N-[3-(5-chloro-1,3-benzoxazol-2-yl)-3-azaspiro[5.5]undecan-9-yl]-5-sulfamoyl-furan-2-carboxamide] | 4.18 µM | 6.69 µM | > 10 µM
CS(=N)(=O)c1ccc(C(=O)NC2CCC3(CC2)CCN(c2nc4cc(Cl)ccc4o2)CC3)o1 (stereo not drawn) [Example 109, N-[3-(5-chloro-1,3-benzoxazol-2-yl)-3-azaspiro[5.5]undecan-9-yl]-5-(methylsulfonimidoyl)furan-2-carboxamide] | 4.66 µM | 5.88 µM | > 100 µM
O=C(NC1CCC2(CC1)CCN(c1nc3ccccc3o1)CC2)c1ccnc(S(=O)(=O)C2CC2)c1 [Example 110, N-[3-(1,3-benzoxazol-2-yl)-3-azaspiro[5.5]undecan-9-yl]-2-cyclopropylsulfonyl-pyridine-4-carboxamide] | 5.58 µM | 5.84 µM | > 10 µM
O=C(NC1CCC2(CC1)CCN(c1nc3cc(Cl)ccc3o1)CC2)c1ccc(S(=O)(=O)NC(=O)C2CCC2)o1 [Example 111, N-[3-(5-chloro-1,3-benzoxazol-2-yl)-3-azaspiro[5.5]undecan-9-yl]-5-(cyclobutanecarbonylsulfamoyl)furan-2-carboxamide] | 3.47 µM | 5.45 µM | 85.7 µM
CS(=O)(=O)Cc1ccc(C(=O)NC2CCC3(CC2)CCN(c2nc4cc(Cl)ccc4o2)CC3)o1 [Example 112, N-[3-(5-chloro-1,3-benzoxazol-2-yl)-3-azaspiro[5.5]undecan-9-yl]-5-(methylsulfonylmethyl)furan-2-carboxamide] | 4.24 µM | 3.68 µM | > 10 µM
CS(=O)(=O)c1ccc(C(=O)NC2CCC3(CC2)CCN(c2nc4cc(Cl)ccc4o2)CC3)o1 [Example 113, N-[3-(5-chloro-1,3-benzoxazol-2-yl)-3-azaspiro[5.5]undecan-9-yl]-5-methylsulfonyl-furan-2-carboxamide] | 3.27 µM | 3.59 µM | > 100 µM
CCS(=N)(=O)c1ccc(C(=O)NC2CCC3(CC2)CCN(c2nc4cc(Cl)ccc4o2)CC3)o1 (stereo not drawn) [Example 114, N-[3-(5-chloro-1,3-benzoxazol-2-yl)-3-azaspiro[5.5]undecan-9-yl]-5-(ethylsulfonimidoyl)furan-2-carboxamide] | 3.1 µM | 3.54 µM | 93.3 µM
O=C(NC1CCC2(CC1)CCN(c1nc3cc(Cl)ccc3o1)CC2)c1ccc(C(F)(F)F)o1 [Example 115, N-[3-(5-chloro-1,3-benzoxazol-2-yl)-3-azaspiro[5.5]undecan-9-yl]-5-(trifluoromethyl)furan-2-carboxamide] | 2.64 µM | 2.92 µM | > 100 µM
C[S+]([O-])c1ccc(C(=O)NC2CCC3(CC2)CCN(c2nc4cc(Cl)ccc4o2)CC3)o1 (stereo not drawn) [Example 116, N-[3-(5-chloro-1,3-benzoxazol-2-yl)-3-azaspiro[5.5]undecan-9-yl]-5-methylsulfinyl-furan-2-carboxamide] | 2.34 µM | 2.86 µM | 68.5 µM
CCS(=O)(=O)c1ccc(C(=O)NC2CCC3(CC2)CCN(c2nc4cc(Cl)ccc4o2)CC3)o1 [Example 117, N-[3-(5-chloro-1,3-benzoxazol-2-yl)-3-azaspiro[5.5]undecan-9-yl]-5-ethylsulfonyl-furan-2-carboxamide] | 2.91 µM | 2.37 µM | > 100 µM
O=C(NC1CCC2(CC1)CCN(c1nc3cc(Cl)ccc3o1)CC2)c1ccnc(S(=O)(=O)C2CC2)c1 [Example 118, N-[3-(5-chloro-1,3-benzoxazol-2-yl)-3-azaspiro[5.5]undecan-9-yl]-2-cyclopropylsulfonyl-pyridine-4-carboxamide] | 2.36 µM | 2.37 µM | > 10 µM
N=S(=O)(CC1CC1)c1ccc(C(=O)NC2CCC3(CC2)CCN(c2nc4cc(Cl)ccc4o2)CC3)o1 (stereo not drawn) [Example 119, N-[3-(5-chloro-1,3-benzoxazol-2-yl)-3-azaspiro[5.5]undecan-9-yl]-5-(cyclopropylmethylsulfonimidoyl)furan-2-carboxamide] | 1.36 µM | 1.92 µM | 85.8 µM
